Laboratory results: PMC10682911 (Saudi Pharmaceutical Journal : SPJ, 2023)
pKi: −log10 of the molar value. Values joined by “and” are separate entries in the source; they are usually repeats but may differ in a detail not shown here. Equal entries are not always repeated.

Tests used:
hCA IX = hCA IX (Homo sapiens, UniProt Q16790); assay: biochemical; conditions: for Selectivity analysis hCA II/IX / Selectivity analysis hCA I/IX: SI; for Selectivity analysis hCA II/IX: hCA IX over hCA II (ratio of Ki); for pKi: Ki hCA IX, stopped-flow technique, mean from 3 different assays; for Selectivity analysis hCA I/IX: hCA IX over hCA I (ratio of Ki)
hCA XII = hCA XII (Homo sapiens, UniProt O43570); assay: hCA XII inhibition, stopped-flow technique; assay type: biochemical; conditions: for Selectivity analysis hCA I/XII / Selectivity analysis hCA II/XII: SI; for Selectivity analysis hCA I/XII: hCA XII over hCA I (ratio of Ki); for Selectivity analysis hCA II/XII: hCA XII over hCA II (ratio of Ki)
hCA I = hCA I (Homo sapiens, UniProt P00915); assay: hCA I inhibition, stopped-flow technique; assay type: biochemical
hCA II = hCA II (Homo sapiens, UniProt P00918); assay: hCA II inhibition, stopped-flow technique; assay type: biochemical

Sequence of hCA XII (O43570 25-354): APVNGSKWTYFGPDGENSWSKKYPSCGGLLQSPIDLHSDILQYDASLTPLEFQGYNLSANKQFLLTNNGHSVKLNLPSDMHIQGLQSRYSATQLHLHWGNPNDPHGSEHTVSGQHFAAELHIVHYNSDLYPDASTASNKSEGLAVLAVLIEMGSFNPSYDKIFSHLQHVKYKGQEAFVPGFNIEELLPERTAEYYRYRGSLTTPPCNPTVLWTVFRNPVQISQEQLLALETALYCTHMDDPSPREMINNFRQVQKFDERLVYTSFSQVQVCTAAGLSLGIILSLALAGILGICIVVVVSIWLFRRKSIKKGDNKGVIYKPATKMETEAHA
Sequence of hCA I (P00915 whole entry): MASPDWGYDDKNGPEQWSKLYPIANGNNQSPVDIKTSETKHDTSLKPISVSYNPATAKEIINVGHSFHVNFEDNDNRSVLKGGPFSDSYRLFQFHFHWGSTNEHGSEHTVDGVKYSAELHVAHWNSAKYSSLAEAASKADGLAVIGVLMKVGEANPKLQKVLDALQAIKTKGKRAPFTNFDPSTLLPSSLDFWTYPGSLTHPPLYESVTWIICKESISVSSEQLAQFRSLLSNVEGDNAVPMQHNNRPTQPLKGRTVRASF

Structure (SMILES) | Selectivity analysis hCA II/IX (hCA IX) | pKi (hCA XII) | Selectivity analysis hCA I/XII (hCA XII) | Selectivity analysis hCA II/XII (hCA XII) | pKi (hCA IX) | Selectivity analysis hCA I/IX (hCA IX) | pKi (hCA I) | pKi (hCA II)
NNC(=O)CSc1nc2ccccc2c(=O)n1CCc1ccc(S(N)(=O)=O)cc1 [Compound 3, 4-(2-(2-((2-hydrazineyl-2-oxoethyl)thio)-4-oxoquinazolin-3(4H)-yl)ethyl)benzenesulfonamide] | 0.31 | – | – | – | – | – | – | –
NS(=O)(=O)c1ccc(CCn2c(SCC(=O)NN=Cc3cccc(O)c3)nc3ccccc3c2=O)cc1 [Compound 6, 4-(2-(2-((2-(2-(3-Hydroxybenzylidene)hydrazineyl)-2-oxoethyl)thio)-4-oxoquinazolin-3(4H)-yl)ethyl)benzenesulfonamide] | 2.31 | 7.46 | 27.58 | 2.60 | 7.41 | 24.60 | 6.02 | 7.05
NS(=O)(=O)c1ccc(CCn2c(SCC(=O)NN=Cc3ccc(O)cc3)nc3ccccc3c2=O)cc1 [Compound 7, 4-(2-(2-((2-(2-(4-Hydroxybenzylidene)hydrazineyl)-2-oxoethyl)thio)-4-oxoquinazolin-3(4H)-yl)ethyl)benzenesulfonamide] | 1.23 | 7.71 | 34.08 | 3.92 | 7.20 and 7.21 | 10.68 | 6.18 | 7.12
COc1ccc(C=NNC(=O)CSc2nc3ccccc3c(=O)n2CCc2ccc(S(N)(=O)=O)cc2)cc1 [Compound 10, 4-(2-(2-((2-(2-(4-Methoxybenzylidene)hydrazineyl)-2-oxoethyl)thio)-4-oxoquinazolin-3(4H)-yl)ethyl)benzenesulfonamide] | 1.68 | 7.33 | 12.00 | 1.79 | 7.30 | 11.23 | 6.25 | 7.08
COc1ccc(C=NNC(=O)CSc2nc3ccccc3c(=O)n2CCc2ccc(S(N)(=O)=O)cc2)c(OC)c1 [Compound 11, 4-(2-(2-((2-(2-(2,4-Dimethoxybenzylidene)hydrazineyl)-2-oxoethyl)thio)-4-oxoquinazolin-3(4H)-yl)ethyl)benzenesulfonamide] | – | 7.13 | 30.928 | 0.68 | 7.28 | 43.60 | 5.64 | 7.29
COc1ccc(C=NNC(=O)CSc2nc3ccccc3c(=O)n2CCc2ccc(S(N)(=O)=O)cc2)cc1OC [Compound 12, 4-(2-(2-((2-(2-(3,4-Dimethoxybenzylidene)hydrazineyl)-2-oxoethyl)thio)-4-oxoquinazolin-3(4H)-yl)ethyl)benzenesulfonamide] | 2.94 | 7.16 | 15.289 | 3.75 | 7.05 | 11.98 | 5.98 | 6.59
COc1cc(C=NNC(=O)CSc2nc3ccccc3c(=O)n2CCc2ccc(S(N)(=O)=O)cc2)cc(OC)c1OC [Compound 13, 4-(2-(4-Oxo-2-((2-Oxo-2-(2-(3,4,5-trimethoxybenzylidene)hydrazineyl)ethyl)thio)quinazolin-3(4H)-yl)ethyl)benzenesulfonamide] | 5.38 | 7.04 | 21.66 | 7.27 | 6.91 | 16.05 | 5.70 | 6.18
COc1cc(C=NNC(=O)CSc2nc3ccccc3c(=O)n2CCc2ccc(S(N)(=O)=O)cc2)ccc1O [Compound 14, 4-(2-(2-((2-(2-(4-Hydroxy-3-methoxybenzylidene)hydrazineyl)-2-oxoethyl)thio)-4-oxoquinazolin-3(4H)-yl)ethyl)benzenesulfonamide] | 0.50 | 7.85 | 60.35 | 2.09 | 7.22 | 14.25 | 6.07 | 7.53
NS(=O)(=O)c1ccc(CCn2c(SCC(=O)NN=Cc3ccc4c(c3)OCO4)nc3ccccc3c2=O)cc1 [Compound 15, 4-(2-(2-((2-(2-(Benzo[d][1,3]dioxol-5-ylmethylene)hydrazineyl)-2-oxoethyl)thio)-4-oxoquinazolin-3(4H)-yl)ethyl)benzenesulfonamide] | 6.10 | 7.28 | 13.11 | 1.91 | 7.78 | 41.95 | 6.16 | 7.00
COc1ccc(C(C)=NNC(=O)CSc2nc3ccccc3c(=O)n2CCc2ccc(S(N)(=O)=O)cc2)cc1OC [Compound 19, 4-(2-(2-((2-(2-(1-(3,4-Dimethoxyphenyl)ethylidene)hydrazineyl)-2-oxoethyl)thio)-4-oxoquinazolin-3(4H)-yl)ethyl)benzenesulfonamide] | 4.70 | 7.17 | 12.108 | 2.77 | 7.39 | 20.46 | 6.08 | 6.72
COc1ccc(OC)c(C(C)=NNC(=O)CSc2nc3ccccc3c(=O)n2CCc2ccc(S(N)(=O)=O)cc2)c1 [Compound 20, 4-(2-(2-((2-(2-(1-(2,5-Dimethoxyphenyl)ethylidene)hydrazineyl)-2-oxoethyl)thio)-4-oxoquinazolin-3(4H)-yl)ethyl)benzenesulfonamide] | 7.77 | 7.10 | 21.21 | 2.86 | 7.53 | 57.65 | 5.77 | 6.64
COc1cc(OC)cc(C(C)=NNC(=O)CSc2nc3ccccc3c(=O)n2CCc2ccc(S(N)(=O)=O)cc2)c1 [Compound 21, 4-(2-(2-((2-(2-(1-(3,5-Dimethoxyphenyl)ethylidene)hydrazineyl)-2-oxoethyl)thio)-4-oxoquinazolin-3(4H)-yl)ethyl)benzenesulfonamide] | 2.48 | 7.24 | 19.95 | 2.25 | 7.28 | 21.95 | 5.94 | 6.88
COc1cc(C(C)=NNC(=O)CSc2nc3ccccc3c(=O)n2CCc2ccc(S(N)(=O)=O)cc2)cc(OC)c1OC [Compound 22, 4-(2-(4-Oxo-2-((2-oxo-2-(2-(1-(3,4,5-trimethoxyphenyl)ethylidene)hydrazineyl)ethyl)thio)quinazolin-3(4H)-yl)ethyl)benzenesulfonamide] | 1.80 | 7.07 | 27.09 | 3.90 | 6.73 | 12.52 | 5.64 | 6.48
